Assay results taken from patent US20130165368A1, “ANTIMICROBIAL COMPOUNDS” (priority 2010, published 2013).
≈ marks a conversion by molar mass, not a printed value. Read-outs that look alike come from different tables or passages of the source.

Legend:
Type in all cases: cell-based
Escherichia coli = assay: MIC agar dilution, micro-organism 1 (10418); settings: Escherichia coli 10418, read-out: MIC
Experimental: (§1) Throughout the period of testing the microbial strains were subcultured and incubated for 18-20 hours at 37° C. on a weekly basis. Horse blood agar plates were used to sustain the micro-organisms both prior to and throughout testing. The alkoxylated alkanols listed in Table II below were obtained (these are obtainable from Sigma-Aldrich Company Ltd, Dorset, England), each having a GC purity of at least 97%.
(§2) Molar equivalent concentrations were used to allow comparison between compounds of differing molecular mass. Due to weighing difficulties, any compound in solid form was melted in a water bath prior to dilution. To make ten-times strength concentrations, which takes into account agar dilution, 0.0352 mmol of each compound was weighed into plastic universal bottles and 4 mL of sterile distilled water (SDW) was added. To produce a homogenous emulsion the universals were vortexed; once achieved the emulsions were serial diluted by adding 2 mL to 2 mL of SDW.
(§3) Myristyl alcohol and lauryl alcohol were re-weighed and dissolved in 25 μL of the polar solvent 1-methyl-2-pyrrolidone (M6762; Sigma-Aldrich) in sterile glass universals due to an inability to achieve an even suspension. To maintain an even emulsion in the presence of SDW 37.5 μL of the non-ionic detergent Tween 20 (P1379, Sigma-Aldrich) was also added. 3.9375 mL of SDW was added to these, to create a 4 mL volume; they were vortexed and diluted as before.
(§4) For every 100 mL of Isosensitest agar (IST) (CM0471; Oxoid, Basingstoke, England), 3.1 g of the IST powder was added to 100 mL SDW (as per manufacturer's instructions) and sterilised for 15 minutes at 121° C. Once sterilised, the molten agar was cooled to 50° C. in a water-bath. Subsequently 4.8 g of CCEY powder (BC2160; Bioconnections, Wetherby, England), also known as Brazier's medium, was added to 100 mL SDW for every 100 mL of agar needed. This was then sterilised for 15 minutes at 121° C. Once sterilised the molten agar was cooled to 50° C. in a water-bath and 4 mL of egg-yolk emulsion (S2073; TCS Biosciences Ltd, Buckingham, United Kingdom) and 1 mL of lysed defibrinated horse blood (HB035; TCS Biosciences Ltd, Buckingham, United Kingdom) were also added for every 100 mL needed. Horse blood lysis is achieved by dilution to half concentration with SDW; when fully lysed the mixture will turn dark red in colour.
(§5) 18 mL agar was added to each universal and then poured into sterile Petri dishes. This step creates a 1/10 dilution resulting in agar plates of the required strength. Control plates for each set of strains were created by adding 18 mL of agar to 2 mL of SDW.
(§6) Suspensions of each bacterial species were prepared with a density equal to that of a 0.5 McFarland standard using a densitometer. All suspensions were made using sterile distilled water and fresh 18-20 hour cultures. As a 0.5 McFarland standard contains 1.5×10^8 CFU/mL and the multipoint inoculators applies 1 μL spots of liquid, each bacterial suspension was diluted 1/15 (20 μL suspension to 280 μL sterile distilled water).
(§7) Bacterial suspensions were prepared from fresh 18-24 hour cultures as previously described. 1 μL of each strain was inoculated onto all 100 agar plates containing a different chemical concentration and the 2 control plates. This was done using a multipoint inoculator which inoculates 20 strains per plate. All plates were incubated for 22 hours at 37° C. in aerobic conditions.
(§8) Each plate was examined for bacterial growth after 22 and 48 hours, with each being incubated in between examinations. A positive result was recorded as growth of ≧10 colonies. A negative result was recorded as growth of <10 colonies as this is equivalent to 99.9% inhibition. The lowest concentration of chemical that inhibited growth was recorded as the MIC. The results are recorded in Table IV below, where the numbers are quoted in mmol/L. […]

Providencia rettgeri = assay: MIC agar dilution, micro-organism 3 (7475); settings: Providencia rettgeri 7475, read-out: MIC
Experimental: as §1, §2, §3, §4, §5, §6, §7, §8

Steptococcus pyogenes = assay: MIC agar dilution, micro-organism 11 (8306); settings: Steptococcus pyogenes 8306, read-out: MIC
Experimental: as §1, §2, §3, §4, §5, §6, §7, §8

[1] = system: Staphylococcus aureus (MRSA); assay: MIC agar dilution, micro-organism 12 (11939); settings: Staphylococcus aureus, MRSA, Staphylococcus aureus (MRSA) 11939, read-out: MIC
Experimental: as §1, §2, §3, §4, §5, §6, §7, §8

Staphylococcus aureus = assay: MIC agar dilution, micro-organism 13 (6571); settings: Staphylococcus aureus, Staphylococcus aureus 6571, read-out: MIC
Experimental: as §1, §2, §3, §4, §5, §6, §7, §8

[2] = system: Staphylococcus epidermidis; assay: MIC agar dilution, micro-organism 14 (11047); settings: Staphylococcus epidermidis 11047, read-out: MIC
Experimental: as §1, §2, §3, §4, §5, §6, §7, §8

Listeria monocytogenes = assay: MIC agar dilution, micro-organism 15 (11994); settings: Listeria monocytogenes 11994, read-out: MIC
Experimental: as §1, §2, §3, §4, §5, §6, §7, §8

Enterococcus faecium = assay: MIC agar dilution, micro-organism 16 (7171); settings: Enterococcus faecium 7171, read-out: MIC
Experimental: as §1, §2, §3, §4, §5, §6, §7, §8

Enterococcus faecalis = assay: MIC agar dilution, micro-organism 17 (775); settings: Enterococcus faecalis 775, read-out: MIC
Experimental: as §1, §2, §3, §4, §5, §6, §7, §8

Bacillus subtilis = assay: MIC agar dilution, micro-organism 18 (9372); settings: Bacillus subtilis 9372, read-out: MIC
Experimental: as §1, §2, §3, §4, §5, §6, §7, §8

Candida albicans = assay: MIC agar dilution, micro-organism 19 (90028); settings: Candida albicans 90028, read-out: MIC
Experimental: as §1, §2, §3, §4, §5, §6, §7, §8

Candida glabrata = assay: MIC agar dilution, micro-organism 20 (3943); settings: Nakaseomyces glabratus, Candida glabrata 3943, read-out: MIC
Experimental: as §1, §2, §3, §4, §5, §6, §7, §8

| SMILES | MIC (Escherichia coli; 22 hrs) [µM] | MIC (Escherichia coli; 48 hrs) [µM] | MIC (Providencia rettgeri; 22 hrs) [µM] | MIC (Providencia rettgeri; 48 hrs) [µM] | MIC (Steptococcus pyogenes; 22 h, 22 hrs) [µM] | MIC (Steptococcus pyogenes; 48 h, 48 hrs) [µM] | MIC ([1]; 22 h, 22 hrs) [µM] | MIC ([1]; 48 h, 48 hrs) [µM] | MIC (Staphylococcus aureus; 22 h, 22 hrs) [µM] | MIC (Staphylococcus aureus; 48 h, 48 hrs) [µM] | MIC ([2]; 22 hrs) [µM] | MIC ([2]; 48 hrs) [µM] | MIC (Listeria monocytogenes; 22 hrs) [µM] | MIC (Listeria monocytogenes; 48 hrs) [µM] | MIC (Enterococcus faecium; 22 hrs) [µM] | MIC (Enterococcus faecium; 48 hrs) [µM] | MIC (Enterococcus faecalis; 22 hrs) [µM] | MIC (Enterococcus faecalis; 48 hrs) [µM] | MIC (Bacillus subtilis; 22 hrs) [µM] | MIC (Bacillus subtilis; 48 hrs) [µM] | other results |
| --- | --- | --- | --- | --- | --- | --- | --- | --- | --- | --- | --- | --- | --- | --- | --- | --- | --- | --- | --- | --- | --- |
| CCCCCCCCCCCCCCOCCOCCOCCOCCOCCOCCOCCOCCO [M8, Octaethylene Glycol Monotetradecyl Ether] | > 880 | > 880 | > 880 | > 880 | 550 (≈ 312 µg/mL) | 55 (≈ 31.2 µg/mL) | 440 (≈ 249 µg/mL) | 440 (≈ 249 µg/mL) | 110 (≈ 62.3 µg/mL) | 110 (≈ 62.3 µg/mL) | 220 (≈ 125 µg/mL) | 220 (≈ 125 µg/mL) | > 880 | > 880 | > 880 | > 880 | 55 (≈ 31.2 µg/mL) | 55 (≈ 31.2 µg/mL) | 110 (≈ 62.3 µg/mL) | 110 (≈ 62.3 µg/mL) | MIC (Candida albicans; 22 hrs): > 880 µM; MIC (Candida albicans; 48 hrs): > 880 µM; MIC (Candida glabrata; 22 h, 22 hrs): > 880 µM; MIC (Candida glabrata; 48 h, 48 hrs): > 880 µM |
| CCCCCCCCCCCCCCO [M0, 1-Tetradecanol, reference compound] | > 880 | > 880 | > 880 | > 880 | 220 (≈ 47.2 µg/mL) | 220 (≈ 47.2 µg/mL) | 110 (≈ 23.6 µg/mL) | 110 (≈ 23.6 µg/mL) | 440 (≈ 94.3 µg/mL) | 440 (≈ 94.3 µg/mL) | 110 (≈ 23.6 µg/mL) | 220 (≈ 47.2 µg/mL) | > 880 | > 880 | > 880 | 220 (≈ 47.2 µg/mL) | > 880 | 110 (≈ 23.6 µg/mL) | > 880 | > 880 | MIC (Candida albicans; 22 hrs): > 880 µM; MIC (Candida albicans; 48 hrs): > 880 µM; MIC (Candida glabrata; 22 h, 22 hrs): > 880 µM; MIC (Candida glabrata; 48 h, 48 hrs): > 880 µM |
| CCCCCCCCCCCCO [L0, 1-Dodecanol, reference compound] | > 880 | > 880 | > 880 | > 880 | 440 (≈ 82 µg/mL) | ≥ 880 | 440 (≈ 82 µg/mL) | ≥ 880 | 440 (≈ 82 µg/mL) | ≥ 880 | > 880 | > 880 | > 880 | > 880 | > 880 | > 880 | > 880 | > 880 | > 880 | > 880 | MIC (Candida albicans; 22 hrs): > 880 µM; MIC (Candida albicans; 48 hrs): > 880 µM; MIC (Candida glabrata; 22 h, 22 hrs): 440 µM (≈ 82 µg/mL); MIC (Candida glabrata; 48 h, 48 hrs): ≥ 880 µM |
